One assay concerns the target T1, D2 receptor (Bos taurus, UniProt P20288).
T1 construct: from tissue
Kind of assay: In vitro receptor binding, D2. The settings on record: in vitro; read-out: D2 receptor binding IC50.

Another assay addresses 5-HT1A receptor. In words: In vitro receptor binding, 5-HT1A. On the procedure:
In vitro IC50 test values for binding to the 5-HT1A receptor were determined for representative compounds of Formula I by the method of S. J. Peroutka, Brain Research 344, 167 (1985); with only minor modifications. Test IC50 values lower than 100 nM are considered to reflect activity at the 5-HT1A receptor.

The test system of assay [1] is rat social interaction task (anxiety). In words: Rat social interaction task (in vivo model of anxiety). As to conditions: given subcutaneously.

Broadly, the pIC50 is the IC50 on a negative log10 scale, so that one unit is a factor of ten.

pIC50: −log10 of the molar value.

T1 sequence (P20288 whole entry): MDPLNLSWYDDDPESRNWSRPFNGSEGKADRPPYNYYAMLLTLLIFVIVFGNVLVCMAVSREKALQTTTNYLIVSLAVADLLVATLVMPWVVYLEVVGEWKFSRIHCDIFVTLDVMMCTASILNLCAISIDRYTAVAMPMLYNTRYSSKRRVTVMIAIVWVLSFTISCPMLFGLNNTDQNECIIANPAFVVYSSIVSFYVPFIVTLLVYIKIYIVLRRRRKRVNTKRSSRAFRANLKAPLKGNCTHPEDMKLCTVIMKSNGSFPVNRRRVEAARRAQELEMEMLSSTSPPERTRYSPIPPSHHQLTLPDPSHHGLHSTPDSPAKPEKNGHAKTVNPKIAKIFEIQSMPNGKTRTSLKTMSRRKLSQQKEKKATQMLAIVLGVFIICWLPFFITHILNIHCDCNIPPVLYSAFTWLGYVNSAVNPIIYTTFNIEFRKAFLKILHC
Protocol for D2 receptor: In vitro IC50 test values for binding to the D2 receptor were determined for representative compounds of Formula I by the method of Burt, Creese, and Snyder, Molecular Pharmacology 12, 800 (1976); Creese, Burt, and Snyder, Science 196, 326 (1977); and Creese, Burt and Snyder, Science.

As to `O=[N+]([O-])c1ccccc1CN1CCN([C@H]2CC[C@](O)(c3ccc4c(c3)OCO4)CC2)CC1` [Example 25, Z-1-(1,3-Benzodioxol-5-yl)-4-[4-[(2,-nitrophenyl)methyl]-1-piperazinyl]cyclohexanol], the pIC50 was 5.15 at D2 receptor and 7.89 on 5-HT1A receptor.
Take `O[C@]1(c2ccc(F)cc2)CC[C@H](N2CCN(Cc3cc(F)ccc3F)CC2)CC1` [Example 36, Z-1-(4-Fluorophenyl)-4-[4-[(2,5-difluorophenyl)methyl]-1-piperazinyl]cyclohexanol]: at 5-HT1A receptor, the negative-log IC50 (pIC50) was 7.46. Moreover, the “Rat social interaction task, active doses” value in assay [1] is on record as 0.01-10 mpk.
Regarding `COc1cccc(CC2CCN([C@H]3CC[C@](OC)(c4ccc5c(c4)OCO5)CC3)CC2)c1` [Example 44, Z-1-[4-(1,3-Benzodioxol-5-yl)-4-methoxy-1-cyclohexyl]-4-[(3-methoxyphenyl)methyl]-piperidine], the values for the pIC50 on D2 receptor and on 5-HT1A receptor were 4.31 and 8.09, respectively.

The record behind these values is patent US5478828A, “Piperazinyl-and piperidinyl-cyclohexanols” (Bristol-Myers Squibb Company, priority 1995, dated 1995).
